Source: article PMC4370873, “The RNA Template Channel of the RNA-Dependent RNA Polymerase as a Target for Development of Antiviral Therapy of Multiple Genera within a Virus Family” (PLoS Pathogens, 2015)

Target: T1, EMCV 3Dpol (Mengo virus, UniProt P12296)
T1 construct: mature 3Dpol cut from polyprotein (1834 to 2293, 460 residues); cleavable His6-thioredoxin tag (pETG20A) removed; expressed in E. coli Rosetta (DE3) pLysS
Assay: [3H]UTP incorporation on poly(rA)/dT15, filter binding
Type: biochemical

T1 sequence (P12296 1834-2293): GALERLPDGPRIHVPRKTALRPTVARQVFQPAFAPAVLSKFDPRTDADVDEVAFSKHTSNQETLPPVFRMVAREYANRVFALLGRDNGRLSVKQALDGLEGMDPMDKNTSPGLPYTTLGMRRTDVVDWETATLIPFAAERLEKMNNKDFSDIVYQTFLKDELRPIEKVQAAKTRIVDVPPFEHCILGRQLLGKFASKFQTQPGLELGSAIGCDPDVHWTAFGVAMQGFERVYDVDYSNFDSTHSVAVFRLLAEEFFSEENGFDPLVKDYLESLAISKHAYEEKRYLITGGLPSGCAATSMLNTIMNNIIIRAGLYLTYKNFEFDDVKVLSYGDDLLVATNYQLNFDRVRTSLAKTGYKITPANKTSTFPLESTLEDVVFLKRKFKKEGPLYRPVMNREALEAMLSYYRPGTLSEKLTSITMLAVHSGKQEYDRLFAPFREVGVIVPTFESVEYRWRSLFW

Which Ki does the source give for `N#Cc1cc([N+](=O)[O-])ccc1Oc1ccc(Cl)cc1Oc1ccc([N+](=O)[O-])cc1C#N` [GPC-N114, 2,2'-[(4-chloro-1,2-phenylene)bis(oxy)]bis(5-nitro-benzonitrile)] here?
Its Ki is 1.3 µM.
